Test results taken from US11897862B2 (Gilead Sciences, Inc., priority 2022, dated 2024).
Read-outs that look alike come from different tables or passages of the source.

Columns and labels:
Type in all cases: cell-based
IKZF1 = molecular target: T1, IKZF1 (Homo sapiens, UniProt Q13422+Q96SW2); experiment: HEK293 HiBiT in vitro degradation of IKZF1; conditions: for Dmax: HEK293, HEK293 HiBiT, maximum degradation at the highest concentration tested; for DC50: HEK293 HiBiT, 18-24 hr incubation, normalized to DMSO control, read-out: IKZF1 EC50
T1 construct: expressed in transfected cells
T1 sequence (Q13422 whole entry): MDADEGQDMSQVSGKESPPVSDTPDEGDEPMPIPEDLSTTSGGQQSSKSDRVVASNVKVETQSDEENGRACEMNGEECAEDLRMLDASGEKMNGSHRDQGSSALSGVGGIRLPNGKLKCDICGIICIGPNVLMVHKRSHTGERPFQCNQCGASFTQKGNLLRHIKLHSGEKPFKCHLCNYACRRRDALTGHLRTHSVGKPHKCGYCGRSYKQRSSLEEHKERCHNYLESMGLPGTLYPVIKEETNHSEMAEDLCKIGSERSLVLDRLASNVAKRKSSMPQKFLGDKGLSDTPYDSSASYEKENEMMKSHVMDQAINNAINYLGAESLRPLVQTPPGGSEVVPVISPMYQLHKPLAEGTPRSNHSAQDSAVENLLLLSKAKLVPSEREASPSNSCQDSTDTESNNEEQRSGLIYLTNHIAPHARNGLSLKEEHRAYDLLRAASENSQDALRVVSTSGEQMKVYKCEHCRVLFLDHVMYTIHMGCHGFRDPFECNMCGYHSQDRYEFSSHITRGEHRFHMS
T1 sequence (Q96SW2 whole entry): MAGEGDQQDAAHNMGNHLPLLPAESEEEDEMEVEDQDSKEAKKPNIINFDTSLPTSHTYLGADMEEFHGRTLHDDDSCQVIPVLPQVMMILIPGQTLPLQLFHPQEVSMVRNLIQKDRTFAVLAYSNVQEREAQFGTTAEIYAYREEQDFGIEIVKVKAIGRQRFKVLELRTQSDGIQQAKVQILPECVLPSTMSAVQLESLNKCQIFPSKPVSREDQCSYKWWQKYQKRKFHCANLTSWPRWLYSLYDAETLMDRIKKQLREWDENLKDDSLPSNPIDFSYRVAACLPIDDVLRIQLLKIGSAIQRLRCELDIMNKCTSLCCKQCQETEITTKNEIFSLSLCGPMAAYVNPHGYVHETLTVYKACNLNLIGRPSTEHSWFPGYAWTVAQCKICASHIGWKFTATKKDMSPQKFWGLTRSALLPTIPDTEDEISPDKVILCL
T1 sequence (Q16531 whole entry partner): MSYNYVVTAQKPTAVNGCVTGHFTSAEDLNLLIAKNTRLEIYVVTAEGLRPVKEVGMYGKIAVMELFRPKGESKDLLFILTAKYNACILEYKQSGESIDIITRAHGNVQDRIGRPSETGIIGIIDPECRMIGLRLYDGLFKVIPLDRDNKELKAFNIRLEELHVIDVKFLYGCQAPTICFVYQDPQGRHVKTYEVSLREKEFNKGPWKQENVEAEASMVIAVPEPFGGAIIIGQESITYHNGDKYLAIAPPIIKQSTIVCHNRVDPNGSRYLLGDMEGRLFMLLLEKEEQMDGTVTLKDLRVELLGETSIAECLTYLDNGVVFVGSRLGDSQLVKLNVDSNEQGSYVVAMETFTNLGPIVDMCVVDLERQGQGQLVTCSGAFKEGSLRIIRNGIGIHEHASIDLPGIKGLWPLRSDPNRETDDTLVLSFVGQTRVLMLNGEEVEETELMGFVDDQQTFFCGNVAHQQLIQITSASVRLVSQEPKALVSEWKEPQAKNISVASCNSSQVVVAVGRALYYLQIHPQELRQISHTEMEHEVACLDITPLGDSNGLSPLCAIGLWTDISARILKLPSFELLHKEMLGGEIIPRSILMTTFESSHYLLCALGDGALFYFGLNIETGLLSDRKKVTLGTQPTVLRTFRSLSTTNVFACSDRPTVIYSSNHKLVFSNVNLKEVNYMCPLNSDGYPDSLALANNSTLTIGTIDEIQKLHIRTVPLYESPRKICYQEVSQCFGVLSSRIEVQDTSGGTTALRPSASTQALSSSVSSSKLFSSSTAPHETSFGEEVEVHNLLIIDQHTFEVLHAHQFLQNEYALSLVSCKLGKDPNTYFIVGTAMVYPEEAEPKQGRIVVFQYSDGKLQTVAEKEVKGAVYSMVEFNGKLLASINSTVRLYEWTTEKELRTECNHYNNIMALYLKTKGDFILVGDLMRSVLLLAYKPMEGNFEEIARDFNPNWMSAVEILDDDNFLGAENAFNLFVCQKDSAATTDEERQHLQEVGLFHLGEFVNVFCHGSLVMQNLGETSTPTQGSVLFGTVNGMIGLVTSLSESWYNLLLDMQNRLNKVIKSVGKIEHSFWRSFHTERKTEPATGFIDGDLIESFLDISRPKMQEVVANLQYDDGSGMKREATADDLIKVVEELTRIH
How it was run: (§1)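 Read-out: Nano-Glo lytic HiBiT luminescence after 18-24 h compound exposure at 37 °C, fitted to EC50 and Dmax. Cells were Flp-In T-REx HEK293 expressing linker-HiBiT fused to the C-terminus of each target, doxycycline-induced ([…] final) overnight beforehand.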

SALL4 = molecular target: T2, SALL4 (Homo sapiens, UniProt Q96SW2+Q9UJQ4); experiment: HEK293 HiBiT in vitro degradation of SALL4; conditions: for DC50: 18-24 hr incubation, normalized to DMSO control, read-out: SALL4 EC50
T2 construct: expressed in transfected cells
T2 sequence (Q9UJQ4 whole entry): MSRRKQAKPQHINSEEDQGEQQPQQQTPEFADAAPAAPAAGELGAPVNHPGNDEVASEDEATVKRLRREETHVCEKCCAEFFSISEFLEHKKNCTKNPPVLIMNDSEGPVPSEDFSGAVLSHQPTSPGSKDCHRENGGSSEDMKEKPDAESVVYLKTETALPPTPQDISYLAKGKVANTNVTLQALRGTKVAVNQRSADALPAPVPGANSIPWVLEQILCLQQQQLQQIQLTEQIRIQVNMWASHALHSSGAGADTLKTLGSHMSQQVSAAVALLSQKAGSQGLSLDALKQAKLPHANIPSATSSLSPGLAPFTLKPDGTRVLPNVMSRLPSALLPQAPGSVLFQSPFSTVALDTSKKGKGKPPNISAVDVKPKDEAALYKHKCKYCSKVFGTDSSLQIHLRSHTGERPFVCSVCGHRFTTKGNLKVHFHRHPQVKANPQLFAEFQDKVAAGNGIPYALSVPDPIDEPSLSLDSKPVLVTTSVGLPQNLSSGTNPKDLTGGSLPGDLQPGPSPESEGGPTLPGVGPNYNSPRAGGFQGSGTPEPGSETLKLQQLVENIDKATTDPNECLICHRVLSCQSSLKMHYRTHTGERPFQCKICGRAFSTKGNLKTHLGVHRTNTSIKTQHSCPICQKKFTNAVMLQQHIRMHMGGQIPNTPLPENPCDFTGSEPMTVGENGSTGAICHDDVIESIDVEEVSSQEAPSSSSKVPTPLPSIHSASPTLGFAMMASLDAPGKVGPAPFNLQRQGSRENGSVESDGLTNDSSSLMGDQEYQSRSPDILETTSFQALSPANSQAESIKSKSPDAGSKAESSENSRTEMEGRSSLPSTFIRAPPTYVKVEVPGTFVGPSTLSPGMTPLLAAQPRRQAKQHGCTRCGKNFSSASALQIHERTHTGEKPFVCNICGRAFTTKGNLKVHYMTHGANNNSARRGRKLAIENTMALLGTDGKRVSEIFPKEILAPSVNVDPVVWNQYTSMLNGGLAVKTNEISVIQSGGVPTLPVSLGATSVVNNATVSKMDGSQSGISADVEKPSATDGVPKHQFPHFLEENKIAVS
T2 sequence (Q96SW2 whole entry): as the sequence (Q96SW2 whole entry) above
T2 sequence (Q16531 whole entry partner): as the sequence (Q16531 whole entry partner) above
Method: In vitro degradation of IKZF1, IKZF2, and SALL4 was measured using HiBiT protein tagging and detection technology (Promega).
HiBit technology was used to develop the quantitative assays to measure the cellular IKZFs level by tagging an 11 amino acid HiBit peptides […] to the protein of interest. Reporter plasmids were generated by fusing a linker sequence ([…]) followed by the HiBit tag at the C-terminus of IKZF1, IKZF2, and SALL4. The fusion fragments were subsequently cloned into pcDNA5 pcDNA™5/FRT/TO plasmids (Thermo Fisher, cat #V652020) downstream of the tetracycline operator. The resulting plasmids were co-transfected with pOG44 Flp-Recombinase Expression Vector (Thermo Fisher, cat #V600520) into Flp-In™ T-REx HEK293 line (Thermo Fisher, cat #R78077) and a stable cell pool was selected by adding 100 µg/ml of Hygromycin (Thermo Fisher, cat #10687010). The reporter cell enabled Tet-On inducible reporter expression from a single copy of the integrated gene.
On Day 1, Cells were grown to ˜80% confluency in tissue culture medium (DMEM Glutamax (Gibco10569), 10% Tet free FBS (Takara 631106), and PenStrep Glutamin (Gibco 10378)) in tissue culture flasks. Doxycycline was then added to a final concentration of […] to induce reporter expression at 37° C. overnight.
On Day 2, 125 nL of serially-diluted solution of testing compounds were dispensed into 384-well white solid assay plates via ECHO acoustic liquid handler. Cells were lifted by 0.25% Trypsin (Gibco 25200) then pelleted by centrifugation (Beckman Avanti J-E) at 500×g for 5 min. Cell pellets were resuspended in TC medium at the concentration of 3e5/mL and 25 μL of cell suspension were added into each well of compound-spotted plates. The plates were returned to a 37° C. incubator overnight (18-24 hr).
On Day 3, assay plates were removed from the tissue culture incubator and 25 μL of Nano-Glo lytic detection system (Promega, cat #N3030) was added to each well. Plates were incubated at r.t. for 3 min with shaking, and luminescence was read using an Envision reader (Perkin Elmer).
To assess the IKZF1, IKZF2, and SALL4 degrader potential of exemplified compounds of this disclosure and certain Reference Compounds EC50 and Dmax values were determined for the compounds of Examples 1 to 383 and Reference Compounds A-1, B-1, B-2, B-3, B-4, and C-1 in the HiBiT assays. Asterisks (*) indicate examples for which the data shown represents an average of n≥3.

[1] = system: IL-2 production in Jurkat cells; experiment: Jurkat IL-2 functional assay (ELISA of supernatants); conditions: Homo sapiens; for maximal fold induction: Jurkat, top of the curve fit; for EC50: overnight incubation
Method: (§2) Jurkat cell line (ATCC, Clone E6-1), highly expresses IKZF2 and lends it an appropriate system to screen degradation along with a functional readout. Jurkat cells were grown to 80% confluency in TC medium (RPMI containing glutamax, 10% FBS, 1% NEAA, and 1% Pen/Strep Glutamin in tissue culture flasks.
(§3) The cells were spun down at 400 g for 5 mins and counted. 100 K cells per well were added to a 96-well plate. The compounds were introduced starting at 10 μM and dilutions were made 1:10 for each compound. 100 μL of compound was added to each well for a 12-point titration. The cells were incubated at 37° C. with 5% CO2 overnight.
The following day, supernatants were collected for a functional readout using ELISA. The supernatants were diluted 1:2 and added to appropriate Human IL-2 plates for IL-2 functional readout.
The top of the curve fit for each compound is reported as the IL-2 ‘fold increase over DMSO control.’

IKZF2 [2] = molecular target: T3, IKZF2 (Homo sapiens, UniProt Q96SW2+Q9UKS7); experiment: Human whole blood IKZF2 degradation (flow cytometry, CD4/CD25/Foxp3+ Treg cells); set-up: endogenous in cells; conditions: 24 hrs incubation, IKZF2 MFI in CD4/CD25/Foxp3+ Treg cells, flow cytometry; for DC50: read-out: IKZF2 EC50
How it was run: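 Fresh healthy-donor human whole blood stimulated with CD3/CD28 activator and serially diluted compound for 24 hrs at 37° C. IKZF2 MFI in CD4/CD25/Foxp3+ Tregs (IKZF1 MFI in CD4+ T cells) measured by flow cytometry after RBC lysis, fixation, permeabilization. EC50 and Dmax versus DMSO wells.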
Target sequence in this assay (Q9UKS7 whole entry): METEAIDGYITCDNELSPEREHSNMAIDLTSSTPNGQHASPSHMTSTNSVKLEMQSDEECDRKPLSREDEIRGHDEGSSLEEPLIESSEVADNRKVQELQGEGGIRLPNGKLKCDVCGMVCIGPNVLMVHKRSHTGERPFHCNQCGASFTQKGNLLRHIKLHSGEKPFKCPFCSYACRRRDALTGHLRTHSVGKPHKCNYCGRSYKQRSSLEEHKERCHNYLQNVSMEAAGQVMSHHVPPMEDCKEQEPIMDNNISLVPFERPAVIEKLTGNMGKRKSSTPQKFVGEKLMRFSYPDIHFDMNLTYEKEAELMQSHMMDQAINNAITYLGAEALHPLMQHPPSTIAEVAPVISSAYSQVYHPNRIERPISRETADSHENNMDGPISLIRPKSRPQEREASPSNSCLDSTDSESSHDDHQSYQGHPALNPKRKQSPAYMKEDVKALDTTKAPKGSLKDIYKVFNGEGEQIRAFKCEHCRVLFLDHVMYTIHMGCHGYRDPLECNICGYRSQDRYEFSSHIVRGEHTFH
Target sequence in this assay (Q96SW2 whole entry): as the sequence (Q96SW2 whole entry) above
Target sequence in this assay (Q16531 whole entry partner): as the sequence (Q16531 whole entry partner) above

IKZF2 [3] = molecular target: T3, IKZF2; experiment: Jurkat IKZF2 degradation (flow cytometry); set-up: endogenous in cells; conditions: Jurkat cells, overnight incubation; for DC50: flow cytometry, normalized to DMSO control, read-out: IKZF2 Degradation EC50; for Dmax: maximum degradation at the highest concentration tested
Method: as §2, §3
Target sequence in this assay (Q9UKS7 whole entry): as the sequence (Q9UKS7 whole entry) above
Target sequence in this assay (Q96SW2 whole entry): as the sequence (Q96SW2 whole entry) above
Target sequence in this assay (Q16531 whole entry partner): as the sequence (Q16531 whole entry partner) above
Cells were stained with appropriate surface and intracellular antibodies and acquired by flow cytometry and analysed for degradation. […]

IKZF2 [4] = molecular target: T3, IKZF2; experiment: HEK293 HiBiT in vitro degradation of IKZF2; set-up: expressed in transfected cells; conditions: for Dmax: HEK293, HEK293 HiBiT; for Dmax / IKZF2 Dmax: maximum degradation at the highest concentration tested; for DC50 / IKZF2 Dmax: HEK293 HiBiT; for DC50: 18-24 hr incubation, normalized to DMSO control, read-out: IKZF2 EC50
How it was run: as §1
Target sequence in this assay (Q9UKS7 1-500 isoform Q9UKS7-2): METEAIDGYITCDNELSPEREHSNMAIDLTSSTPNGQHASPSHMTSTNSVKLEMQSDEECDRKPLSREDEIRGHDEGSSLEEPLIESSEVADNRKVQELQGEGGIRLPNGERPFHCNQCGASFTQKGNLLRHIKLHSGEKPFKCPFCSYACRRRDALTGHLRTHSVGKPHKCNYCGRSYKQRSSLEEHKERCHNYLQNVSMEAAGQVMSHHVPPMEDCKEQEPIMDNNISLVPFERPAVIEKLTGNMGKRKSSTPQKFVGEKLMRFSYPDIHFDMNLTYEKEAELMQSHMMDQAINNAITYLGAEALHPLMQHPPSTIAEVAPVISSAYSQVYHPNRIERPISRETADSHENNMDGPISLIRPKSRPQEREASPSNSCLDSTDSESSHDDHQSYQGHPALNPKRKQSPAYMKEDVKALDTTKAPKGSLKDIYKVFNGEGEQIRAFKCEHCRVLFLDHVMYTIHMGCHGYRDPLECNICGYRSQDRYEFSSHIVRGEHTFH
Target sequence in this assay (Q96SW2 whole entry): as the sequence (Q96SW2 whole entry) above
Target sequence in this assay (Q16531 whole entry partner): as the sequence (Q16531 whole entry partner) above

IKZF2 [5] = molecular target: T3, IKZF2; experiment: HEK293 IKZF2 degradation kinetics (HiBiT, timepoints 1-24 h); set-up: expressed in transfected cells; conditions: HEK293, IKZF2; timepoints 1, 2, 3, 4.5 and 24 hour; read-out: Maximum degradation rate Kinact (converted)
Method: The assay technology and principles for evaluating IKZF2 degradation kinetics in HEK293 cells was identical to the HEK293 degradation assay as described above. Additional details are briefly described below.
On Day 1, Cells were grown and induced the same as described above. On Days 2 and 3, compounds for testing were dispensed via ECHO and cells were lifted and plated into compound-spotted assay plates as above. Plates were returned to the 37° C. incubator until addition of Nano-Glo lytic reagent at 1, 2, 3, 4.5, and 24 hour timepoints. At these timepoints, plates were read on Envision reader as above.
All raw data was normalized to DMSO control (final concentration: 0.5%) wells as POC and plotted out as a function of time to generate the degradation rate constant (K) value. The maximum degradation rate (Kinact) was determined by plotting the K value as a function of concentration for each compound tested. Kinact values are shown in Table 25 and the degradation rate plots as well as timecourse of degradation are shown for select compounds in FIG. 1A, FIG. 1B, FIG. 2A and FIG. 2B.
Target sequence in this assay (Q9UKS7 1-500 isoform Q9UKS7-2): as the sequence (Q9UKS7 1-500 isoform Q9UKS7-2) above
Target sequence in this assay (Q96SW2 whole entry): as the sequence (Q96SW2 whole entry) above
Target sequence in this assay (Q16531 whole entry partner): as the sequence (Q16531 whole entry partner) above

[6] = ELISA of supernatants, read-out: IL-2 Production Fold increase over DMSO control
[7] = read-out: increase in IL-2 production relative to DMSO control

| Dmax (IKZF1) [%] | DC50 (IKZF1) [nM] | DC50 (SALL4) [nM] | EC50 ([1]; ELISA of supernatants) [nM] | Dmax (IKZF2 [2]) [%] | DC50 (IKZF2 [2]) [nM] | DC50 (IKZF2 [3]) [nM] | Dmax (IKZF2 [3]) [%] | Dmax (IKZF2 [4]) [%] | DC50 (IKZF2 [4]) [nM] | kinact (IKZF2 [5]) [s⁻¹] | IKZF2 Dmax (IKZF2 [4]) [%] | IKZF2 Dmax (IKZF2 [2]) [%] | Dmax (SALL4; maximum degradation at the highest concentration tested) [%] | SMILES | maximal fold induction [1, 6] | maximal fold induction [1, 7] |
| --- | --- | --- | --- | --- | --- | --- | --- | --- | --- | --- | --- | --- | --- | --- | --- | --- |
| 47 | 66 | > 10000 | 0.6 | 92 | 2 | 0.6 | 96 | 95 | 1 | 0.000189 | – | – | – | CC(N[C@H]1CCCC[C@@H]1Cc1ccc2c(c1F)CN(C1CCC(=O)NC1=O)C2=O)C1CCOCC1 (single isomer, unassigned) [Example 287] | 2.5 | ≥ 1.9 |
| – | > 1000 | > 10000 | – | – | – | – | – | – | 5 | 0.000108 | 95 | – | – | CC1CC[C@H](NC2CCC(F)(F)CC2)[C@@H](Cc2ccc3c(c2)CN(C2CCC(=O)NC2=O)C3=O)C1 (single isomer, unassigned) [Example 325] | – | – |
| – | > 10000 | – | 2.3 | 90 | 7 | 2 | 88 | 96 | 10 | – | – | – | – | O=C1CCC(N2Cc3c(ccc(C[C@H]4OCCC[C@@H]4NC4CCC(F)(F)CC4)c3F)C2=O)C(=O)N1 (stereo partly drawn) [Example 94, 3-(5-(((2R,3S)-3-((4,4-difluorocyclohexyl)amino)tetrahydro-2H-pyran-2-yl)methyl)-4-fluoro-1-oxoisoindolin-2-yl)piperidine-2,6-dione] | 2.1 | ≥ 1.9 |
| – | > 1000 | > 10000 | 0.03 | – | – | 0.1 | 90 | 97 | 5 | 0.000106 | – | – | – | O=C1CC[C@H](N2Cc3c(ccc(C[C@H]4OCCC[C@@H]4N[C@H]4CC[C@H](F)CC4)c3F)C2=O)C(=O)N1 [Example 369] | 2 | ≥ 1.9 |
| 31 | 632 | > 10000 | – | 90 | 5 | – | – | 97 | 5 | 0.000131 | – | – | – | O=C1CCC(N2Cc3c(ccc(C[C@H]4OCCC[C@@H]4N[C@H]4CC[C@H](F)CC4)c3F)C2=O)C(=O)N1 (single isomer, unassigned) [Example 289] | – | – |
| 34 | 626 | – | 8 | – | 4 | 0.8 | 93 | – | 2 | 0.000131 | 95 | 97 | – | CC(N[C@H]1CCCC[C@@H]1Cc1ccc2c(c1)CN(C1CCC(=O)NC1=O)C2=O)C1CCC1 (some centres unmarked) [Example 218] | 2.2 | ≥ 1.9 |
| 31 | 261 | – | 141 | – | – | 3.9 | 83 | 94 | 29 | – | – | – | – | CCN[C@H]1CCCC[C@@H]1Cc1ccc2c(c1)CN(C1CCC(=O)NC1=O)C2=O (stereo partly drawn) [Example 35, 3-(5-(((1R,2S)-2-(ethylamino)cyclohexyl)methyl)-1-oxoisoindolin-2-yl)piperidine-2,6-dione] | 1.9 | ≥ 1.9 |
| 53 | 50 | > 10000 | – | 97 | 4 | – | – | 98 | 2 | 0.000158 | – | – | – | O=C1CC[C@@H](N2Cc3cc(C[C@H]4CCCC[C@@H]4NC4CCC(F)(F)CC4)ccc3C2=O)C(=O)N1 (single isomer, unassigned) [Example 329] | – | – |
| – | – | – | 7.8 | 97 | – | – | 94 | 98 | – | 0.000144 | – | – | – | O=C1CCC(N2Cc3cc(O[C@H]4CCCC[C@@H]4NC4CCC(F)(F)CC4)ccc3C2=O)C(=O)N1 (some centres unmarked) [Example B-4] | 1.8 | – |
| – | – | – | 10 | 82 | – | – | 61 | 82 | – | 3.89e-05 | – | – | 63 | O=C1CCC(N2Cc3cc(C4CCC(Cc5ccccc5)CC4)ccc3C2=O)C(=O)N1 (centres unmarked) [Example A-1] | 1.6 | – |
| 68 | 28 | – | 0.2 | 93 | 1 | 0.05 | 97 | 97 | 1 | – | – | – | – | O=C1CCC(N2Cc3c(ccc(C[C@H]4CCCC[C@@H]4NC4CCC(F)(F)CC4)c3F)C2=O)C(=O)N1 (stereo partly drawn) [Example 84, 3-(5-(((1R,2S)-2-((4,4-difluorocyclohexyl)amino)cyclohexyl)methyl)-4-fluoro-1-oxoisoindolin-2-yl)piperidine-2,6-dione] | 2.6 | ≥ 1.9 |
| – | > 1000 | > 10000 | – | 96 | 5 | – | – | 94 | 10 | 8.61e-05 | – | – | – | CC(N[C@H]1CCCO[C@@H]1Cc1ccc2c(c1F)CN(C1CCC(=O)NC1=O)C2=O)C1CCOCC1 (single isomer, unassigned) [Example 291] | – | – |
| – | – | – | 18 | – | – | – | 83 | 93 | – | – | – | – | – | CCN[C@H]1CCCC[C@@H]1Oc1ccc2c(c1)CN(C1CCC(=O)NC1=O)C2=O (some centres unmarked) [Example B-2] | 1.8 | – |
